Data reported in ChEMBL document CHEMBL4304812, “Synthesis and Bioactivity of the Alanyl Phosphonamidate Stereoisomers Derived from a Butyrophilin Ligand” (ACS Med Chem Lett, 2019).

Experiments:
[1] = Stability in 50% human plasma at 100 uM measured for 24 hrs by LCMS analysis; assay type: ADME, cell-free
[2] = target: T1, Butyrophilin subfamily 3 member A1 (Homo sapiens, UniProt O00481); experiment: Activation of butyrophilin 3A1 in human K562 cells assessed as interferon-gamma production pretreated for 60 mins followed by HMBPP-treated Vgamma9Vdelta2 T cells addition and measured after 20 hrs by ELISA; assay type: cell-based
T1 sequence (O00481 whole entry): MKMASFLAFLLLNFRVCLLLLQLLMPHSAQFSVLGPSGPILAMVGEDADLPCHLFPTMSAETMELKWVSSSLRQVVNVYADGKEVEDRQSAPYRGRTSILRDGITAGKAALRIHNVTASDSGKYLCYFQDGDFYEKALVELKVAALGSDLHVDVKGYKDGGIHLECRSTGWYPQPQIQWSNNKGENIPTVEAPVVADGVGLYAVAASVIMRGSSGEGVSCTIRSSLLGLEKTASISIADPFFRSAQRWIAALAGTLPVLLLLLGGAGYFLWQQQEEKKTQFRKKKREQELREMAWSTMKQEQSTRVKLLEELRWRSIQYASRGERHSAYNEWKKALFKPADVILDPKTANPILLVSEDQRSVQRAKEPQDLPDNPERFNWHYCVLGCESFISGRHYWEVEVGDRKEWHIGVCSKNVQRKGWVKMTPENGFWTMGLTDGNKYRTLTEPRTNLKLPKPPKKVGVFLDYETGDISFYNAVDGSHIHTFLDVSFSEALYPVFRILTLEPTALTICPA

[3] = target: T1, Butyrophilin subfamily 3 member A1; experiment: Activation of butyrophilin 3A1 in human K562 cells assessed as interferon-gamma production pretreated for 240 mins followed by HMBPP-treated Vgamma9Vdelta2 T cells addition and measured after 20 hrs by ELISA; assay type: cell-based
[4] = target: T1, Butyrophilin subfamily 3 member A1; experiment: Activation of butyrophilin 3A1 in human K562 cells assessed as interferon-gamma production pretreated for 15 mins followed by HMBPP-treated Vgamma9Vdelta2 T cells addition and measured after 20 hrs by ELISA; assay type: cell-based
PBMC = experiment: Activation of cell proliferation in human PBMC incubated for 72 hrs by Cell Quanti Blue reagent based assay; assay type: functional

Structure (SMILES): CCOC(=O)[C@H](C)N[P@@](=O)(CC/C=C(\C)CO)Oc1ccccc1
- Stability [1]: Stable
- EC50 [2]: 79 nM
- EC50 [3]: 21 nM
- EC50 [4]: 200 nM
- EC50 (PBMC): 0.28 nM

Structure (SMILES): C/C(=C\COP(=O)(O)OP(=O)(O)O)CO
- EC50 (PBMC): 0.5 nM

Structure (SMILES): CCOC(=O)[C@H](C)N[P@](=O)(CC/C=C(\C)CO)Oc1ccccc1
- Stability [1]: Stable
- EC50 [2]: 160 nM
- EC50 [3]: 43 nM
- EC50 [4]: 460 nM
- EC50 (PBMC): 0.43 nM

Structure (SMILES): CCOC(=O)[C@@H](C)N[P@](=O)(CC/C=C(\C)CO)Oc1ccccc1
- Stability [1]: Stable
- EC50 [2]: 2000 nM
- EC50 [3]: 520 nM
- EC50 [4]: 6000 nM

Structure (SMILES): CCOC(=O)CNP(=O)(CC/C=C(\C)CO)Oc1ccccc1 (racemic)
- EC50 [2]: 230 nM
- EC50 [3]: 51 nM
- EC50 [4]: 1500 nM

Structure (SMILES): O=P(O)(O)C(O)(Cn1ccnc1)P(=O)(O)O [ZOLEDRONIC ACID]
- EC50 [2]: 79000 nM
- EC50 [3]: 23000 nM
- EC50 [4]: > 100000 nM

Structure (SMILES): C/C(=C\CCP(=O)(OCOC(=O)C(C)(C)C)OCOC(=O)C(C)(C)C)CO
- Stability [1]: Stable

Structure (SMILES): C/C(=C\CCP(=O)(OCOC(=O)C(C)(C)C)Oc1ccccc1)CO (configuration not stated)
- EC50 (PBMC): 14 nM

Structure (SMILES): CCOC(=O)[C@@H](C)N[P@@](=O)(CC/C=C(\C)CO)Oc1ccccc1
- Stability [1]: Stable
- EC50 [2]: 1500 nM
- EC50 [3]: 430 nM
- EC50 [4]: 4600 nM

Structure (SMILES): C/C(=C\CCP(=O)(OCOC(=O)C(C)(C)C)Oc1cccc2ccccc12)CO (configuration not stated)
- EC50 (PBMC): 0.79 nM

Structure (SMILES): C/C(=C\CCP(=O)(O)O)CO
- EC50 (PBMC): 4000 nM

Structure (SMILES): C/C(=C\CCP(=O)(O)OP(=O)(O)O)CO
- EC50 [2]: 1200 nM
- EC50 [3]: 280 nM
- EC50 [4]: 7600 nM
